The test system of assay [1] is BRCA1-deficient cells. The settings on record: cited from earlier work.
Assay [2] concerns BOGA cells. Put plainly: Analysis of aberrant chromosomes in metaphase spreads (genomic instability). The class given is cell-based. On the procedure:
(§1) Aliquots of 1 nmol calcitriol were resuspended in 1 mL of bovine growth serum (BGS) and diluted in DMEM with antibiotics and antimycotics to a final concentration of 10% BGS. BGS was used as the vehicle in control media. Treatment was carried out for 24 hours unless indicated otherwise.
(§2) Cells were incubated with the broad spectrum cathepsin inhibitor E-64 (E3132, Sigma-Aldrich) at a concentration of 10 μM. Water served as the vehicle in control media. Treatment was carried out for 24 hours unless indicated otherwise.
Cells were treated with the PARPi EB-47 (E8405, Sigma-Aldrich) at a concentration of 1.2 μg/mL for 48 hours. PARPi was dissolved in water, which was used as vehicle control.
(§3) For determining the extent of genomic instability, cells were irradiated with 2 Gy and analysis of metaphase spreads was performed 24 hours post-irradiation. For assaying formation of IRIF, cells were irradiated with 8 Gy and fixed and processed for immunofluorescence 1 hour, 3 hours, or 6 hours post-irradiation as indicated. For comet assays, cells were irradiated with 8 Gy.
Following all treatments, cells were arrested in mitosis by treatment with colcemid for 4 hours and metaphase spreads prepared by hypotonic swelling in 0.56% KCl, followed by fixation in 3:1 methanol:acetic acid. Cell suspensions were dropped onto slides and stained for 25 minutes in Wright-Giemsa Stain (9380-32, Ricca Chemical Company) and then washed in water. Slides were allowed to dry and were mounted using Eukitt Mounting Reagent and analyzed on an Olympus BX51 light microscope.

Assay [3] deals with BOGA cells. Put plainly: Western blot of protein levels in BOGA cells after treatment. The class given is cell-based. As to the method: MCF7 cells were a gift from J. Weber (Washington University, St. Louis, Mo.). Cells were maintained in DMEM (Cellgro) supplemented with 10% fetal bovine serum (Sigma-Aldrich), antibiotics, and antimycotics. Cells transduced with short hairpin RNAs (shRNAs) were maintained in selection media containing 0.5 mg/mL Geneticin G418 (Gibco) or 2 μg/mL puromycin (Invitrogen).
Cells were lysed in RIPA buffer (50 mM Tris-HCl pH 8.0, 150 mM NaCl, 1% NP-40, 0.5% sodium deoxycholate, 0.5% SDS) supplemented with PMSF, protease inhibitors, and DTT. Following sonication, 120 μg of total cell lysate was loaded into 4%-15% Tris-Gly gradient gels. Protein detection was carried out with the following antibodies: BRCA1 (sc-6954, Santa Cruz), 53BP1 (NB100-304, Novus Biologicals), cathepsin L (sc-6498, Santa Cruz), p107 (sc-318, Santa Cruz), RAD51 (sc-8349, Santa Cruz), RPA (NA18, Calbiochem), and β-Tubulin (T8328, Sigma-Aldrich).
as §1, §2
Background: A western blot detects proteins with antibodies after separation by electrophoresis.

Assay [4] deals with BOGA cells. Description: 53BP1 IRIF formation by immunofluorescence. It is filed as cell-based. The settings on record: BOGA cells (sh BRCA1), vitamin D 10−7 M from 24 hours prior to 8 Gy, fixed 6 hours post-IR. As to the method:
(§4) Aliquots of 1 nmol calcitriol were resuspended in 1 mL of bovine growth serum (BGS) and diluted in DMEM with antibiotics and antimycotics to a final concentration of 10% BGS. BGS was used as the vehicle in control media. Treatment was carried out for 24 hours unless indicated otherwise. For determining the extent of genomic instability, cells were irradiated with 2 Gy and analysis of metaphase spreads was performed 24 hours post-irradiation. For assaying formation of IRIF, cells were irradiated with 8 Gy and fixed and processed for immunofluorescence 1 hour, 3 hours, or 6 hours post-irradiation as indicated. For comet assays, cells were irradiated with 8 Gy. Cells were plated on coverslips, irradiated with 8 Gy if indicated, and collected at the varying time intervals. Cells were fixed with 3.7% formaldehyde and 0.2% TritonX-100 in PBS for 10 minutes at RT, followed by 3 washes in PBS. After blocking in 1% BSA and 0.1% Triton X-100 in PBS for 1 hour at 37° C., cells were incubated with 53BP1 (NB100-304, Novus Biologicals) or RAD51 (sc-8349, Santa Cruz) antibodies for 1 hour at 37° C. Three washes in PBS were carried out followed by incubation for 1 hour at 37° C. with appropriate secondary antibodies. Final washes in PBS were carried out and cells were counterstained with DAPI and coverslips were mounted on slides using Vectashield (Vector Labs). […]

The subject of assay [5] is BOGA cells. Put plainly: RAD51 IRIF formation by immunofluorescence. It is filed as cell-based. The settings on record: vitamin D, 8 Gy. On the procedure: as §4
Assay [6] deals with BOGA cells. Description: Neutral comet assay, kinetics of DNA DSBs repair. The class given is cell-based. The settings on record: vitamin D 10−7 M 24 h preirradiation, 8 Gy. On the procedure: as §3
Neutral comet assays were performed using CometSlide assay kits (Trevigen). […] Cells were embedded in agarose, lysed, and subjected to neutral single cell gel electrophoresis. The agarose was dehydrated and cells were stained with ethidium bromide to visualize under a fluorescence microscope. Olive comet moment was determined using the program CometScore Version 1.5 (TriTek). Olive moment was calculated by multiplying the percentage of DNA in the tail by the displacement between the means of the head and tail distributions as described (Olive et al., 1990). A total of 25-30 comets were analyzed per sample in each experiment.

Setting [7] is: BRCA1-deficient (BOGA) cells, E64 10 μM.

With `CNCc1ccc(-c2[nH]c3cc(F)cc4c3c2CCNC4=O)cc1` [AG014699], the “Clonogenic survival of BRCA1-deficient cells compared to cells expressing BRCA1” value in assay [1] is “clear reduction”.

As for `CC(C)C[C@H](NC(=O)[C@H]1O[C@@H]1C(=O)O)C(=O)NCCCCN=C(N)N` [E64], the “Genomic instability after IR” value in assay [2] (E64 24 h prior to 2 Gy) is “marked increase”. For the same compound, in assay [3] (setting [7]), the “53BP1 protein levels (western blot)” value was “increased levels” and the “CTSL levels (western blot)” value is recorded as “without major changes”.

Consider `Nc1ncnc2c1ncn2[C@@H]1O[C@H](C(=O)N2CCN(CC(=O)Nc3cccc4c3CNC4=O)CC2)[C@@H](O)[C@H]1O` [EB-47], for which, in assay [2] (PARPi EB-47 1.2 μg/mL 48 h alone), the “Genomic instability (metaphases with chromosomal aberrations)” value was “does not result in profound genomic instability”.

As for `O=C1CCC(=O)N1c1cc(Cc2n[nH]c(=O)c3ccccc23)ccc1F` [KU0058684], in assay [1], the “Clonogenic survival of BRCA1-deficient cells compared to cells expressing BRCA1” value was “clear reduction”.

Consider `O=C(c1cc(Cc2n[nH]c(=O)c3ccccc23)ccc1F)N1CCCNCC1` [KU0058948], for which the “Clonogenic survival of BRCA1-deficient cells compared to cells expressing BRCA1” value in assay [1] is “clear reduction”.

`C=C1/C(=C\C=C2/CCC[C@]3(C)[C@@H]([C@H](C)CCCC(C)(C)O)CC[C@@H]23)C[C@@H](O)C[C@@H]1O` [vitamin D, 1α,25-dihydroxyvitamin D3]: in assay [4], the “% cells with 53BP1 foci” value is recorded as 84%. Further, the “% cells with 53BP1 foci” value in assay [4] (listed as vit D) came to 84%. Further, the “% cells positive for RAD51 IRIF” value in assay [5] (1 hour post-IR) was determined as 35%. In assay [5] (3 h post-IR), the “Extent of RAD51 IRIF at later times post-irradiation” value is on record as “did not affect”. Also, the “Extent of chromosomal aberrations in response to PARPi” value in assay [2] (vitamin D 10−7 M 24 h prior to and with PARPi EB-47 1.2 μg/mL 48 h) is reported as “increase”. The “Percentage of metaphases with aberrant chromosomes after IR” value in assay [2] (vitamin D 24 h prior to 2 Gy, 24 h post-IR) was “significantly increased”. For the same compound, in assay [2] (vitamin D alone, mock irradiation), the “Genomic instability (metaphases with chromosomal aberrations), single agent” value was “modest increase”. The “Kinetics of DNA DSBs repair (fast phase), Olive comet moment” value in assay [6] was “rescues”. Besides, in assay [3] (BOGA cells, vitamin D 10−7 M), the “53BP1 protein levels (western blot)” value is recorded as “stabilizes” and the “p107 levels (control for inhibition of CTSL activity)” value is on record as “stabilization”.
